The record followed here is US11370803B2, “Heteroaryl plasma kallikrein inhibitors” (Takeda Pharmaceutical Company Limited, priority 2019, dated 2022).

Chain of human activated kallikrein enzyme (P03952 391-638): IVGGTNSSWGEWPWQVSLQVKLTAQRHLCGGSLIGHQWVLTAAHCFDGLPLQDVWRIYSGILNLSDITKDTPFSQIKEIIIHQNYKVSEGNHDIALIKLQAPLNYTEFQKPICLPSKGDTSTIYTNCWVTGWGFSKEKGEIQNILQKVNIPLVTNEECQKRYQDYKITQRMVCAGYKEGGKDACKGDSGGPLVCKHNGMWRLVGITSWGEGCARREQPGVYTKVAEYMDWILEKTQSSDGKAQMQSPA
Chain of human activated kallikrein enzyme (P03952 20-390 partner): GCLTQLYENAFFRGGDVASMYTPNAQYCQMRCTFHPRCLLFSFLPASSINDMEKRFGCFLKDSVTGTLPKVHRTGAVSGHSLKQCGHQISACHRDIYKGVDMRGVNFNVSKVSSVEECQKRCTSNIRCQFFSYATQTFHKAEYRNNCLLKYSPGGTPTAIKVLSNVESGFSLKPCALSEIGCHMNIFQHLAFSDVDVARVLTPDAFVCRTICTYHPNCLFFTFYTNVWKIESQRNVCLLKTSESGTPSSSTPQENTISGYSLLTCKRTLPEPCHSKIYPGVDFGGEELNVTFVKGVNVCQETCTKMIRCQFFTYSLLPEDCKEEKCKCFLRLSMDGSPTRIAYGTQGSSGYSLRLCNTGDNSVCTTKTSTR

The assay deals with human activated kallikrein enzyme (Homo sapiens (Human), UniProt P03952). The experiment in a line: Inhibition of human activated plasma kallikrein, fluorogenic peptide substrate assay (500 pM enzyme format). It counts as biochemical. As to conditions: 500 pM activated kallikrein, 300 uM Pro-Phe-Arg-7-amido-4-methylcoumarin substrate, 30 min preincubation, 10 min reaction at RT; read-out: Primary Dose Response Assay: Average EC50. On the procedure:
Inhibitory Activity of Exemplary Compounds against Plasma Kallikrein. Example compounds were evaluated for inhibition of the human activated kallikrein enzyme in two formats of an assay employing a fluorogenic peptide substrate. In one assay format, the concentrations of reagents were as follows: 20 mM Tris pH 7.5, 1 mM EDTA, 150 mM sodium chloride, 0.1% PEG-400, 0.1% Triton X-100, 500 pM activated kallikrein enzyme, 300 uM Pro-Phe-Arg-7-amido-4-methylcoumarin substrate. Prior to reaction initiation with substrate, enzyme and inhibitors were preincubated for 30 min at RT. After initiation with substrate, reactions were incubated for 10 min at RT and fluorescence emission at 460 nm from 380 nm excitation measured with a microplate reader. In another assay format, the concentrations of reagents were as follows: 20 mM Tris pH 7.5, 1 mM EDTA, 150 mM sodium chloride, 0.1% PEG-400, 0.1% Triton X-100, 5 pM activated kallikrein enzyme, 300 uM Pro-Phe-Arg-7-amido-4-methylcoumarin substrate. Prior to reaction initiation with substrate, enzyme and inhibitors were preincubated for 30 min at RT. After initiation with substrate, reactions were incubated for 18 h at RT and fluorescence emission at 460 nm from 380 nm excitation measured with a microplate reader.
Table 1 provides the results of the assay in the format with 500 pM activated kallikrein assay. For the compounds listed in Table 1, the EC50 values are reported according to the following ranges: A≤50 nM; 50 nM<B≤200 nM; 200 nM<C≤1000 nM; 1000 nM<D.
`O=C(Cc1ncn2ccc(Cl)cc12)NCc1cn(Cc2cn3cc(C4CC4)ccc3n2)nn1` [Compound I-1, 2-(7-chloroimidazo[1,5-a]pyridin-1-yl)-N-((1-((6-cyclopropylimidazo[1,2-a]pyridin-2-yl)methyl)-1H-1,2,3-triazol-4-yl)methyl)acetamide]: the EC50 is ≤ 0.05 µM. `Fc1c(Cl)ccn2cnc(C(NCc3cn(Cc4cn5cc(C6CC6)ccc5n4)nn3)C(F)(F)F)c12` (stereo not drawn) [Compound I-2, 1-(7-chloro-8-fluoroimidazo[1,5-a]pyridin-1-yl)-N-((1-((6-cyclopropylimidazo[1,2-a]pyridin-2-yl)methyl)-1H-1,2,3-triazol-4-yl)methyl)-2,2,2-trifluoroethan-1-amine]: the EC50 was > 1 µM. As to `O=C(NCc1cn(Cc2cn3cc(C4CC4)ccc3n2)nn1)c1ncn2ccc(Cl)c(F)c12` [Compound I-3, 7-chloro-N-((1-((6-cyclopropylimidazo[1,2-a]pyridin-2-yl)methyl)-1H-1,2,3-triazol-4-yl)methyl)-8-fluoroimidazo[1,5-a]pyridine-1-carboxamide], the EC50 is 0.05 to 0.2 µM. For `O=S(=O)(NCc1ncn2ccc(Cl)c(F)c12)c1cnn(Cc2cn3cc(C4CC4)ccc3n2)c1` [Compound I-4, N-((7-chloro-8-fluoroimidazo[1,5-a]pyridin-1-yl)methyl)-1-((6-cyclopropylimidazo[1,2-a]pyridin-2-yl)methyl)-1H-pyrazole-4-sulfonamide], the EC50 was 0.2 to 1 µM.

Regarding `O=S(=O)(NCc1ncn2ccc(Cl)c(F)c12)c1cn(Cc2cn3cc(C4CC4)ccc3n2)nn1` [Compound I-5, N-((7-chloro-8-fluoroimidazo[1,5-a]pyridin-1-yl)methyl)-1-((6-cyclopropylimidazo[1,2-a]pyridin-2-yl)methyl)-1H-1,2,3-triazole-4-sulfonamide], the concentration for a half-maximal effect (EC50) lay in the range of 0.2 to 1 µM. Turning to `O=S(=O)(NCc1cn(Cc2cn3cc(C4CC4)ccc3n2)nn1)c1ncn2ccc(Cl)c(F)c12` [Compound I-6, 7-chloro-N-((1-((6-cyclopropylimidazo[1,2-a]pyridin-2-yl)methyl)-1H-1,2,3-triazol-4-yl)methyl)-8-fluoroimidazo[1,5-a]pyridine-1-sulfonamide], the EC50 was ≤ 0.05 µM. As for `CC(NS(=O)(=O)c1ncn2ccc(Cl)c(F)c12)c1cn(Cc2cn3cc(C4CC4)ccc3n2)nn1` (stereo not drawn) [Compound I-7, 7-chloro-N-(1-(1-((6-cyclopropylimidazo[1,2-a]pyridin-2-yl)methyl)-1H-1,2,3-triazol-4-yl)ethyl)-8-fluoroimidazo[1,5-a]pyridine-1-sulfonamide], the half-maximal effective concentration (EC50) was ≤ 0.05 µM. In the case of `O=C(NCc1ncn2ccc(Cl)c(F)c12)c1cn2c(n1)CCC2c1cn2cc(C3CC3)ccc2n1` (stereo not drawn) [Compound I-8, N-((7-chloro-8-fluoroimidazo[1,5-a]pyridin-1-yl)methyl)-5-(6-cyclopropylimidazo[1,2-a]pyridin-2-yl)-6,7-dihydro-5H-pyrrolo[1,2-a]imidazole-2-carboxamide], the 50% effective concentration (EC50) is ≤ 0.05 µM.

`O=C(NCc1ncn2ccc(Cl)c(F)c12)c1cnc2n1C(c1cn3cc(C4CC4)ccc3n1)CC2` (stereo not drawn) [Compound I-9, N-((7-chloro-8-fluoroimidazo[1,5-a]pyridin-1-yl)methyl)-5-(6-cyclopropylimidazo[1,2-a]pyridin-2-yl)-6,7-dihydro-5H-pyrrolo[1,2-a]imidazole-3-carboxamide]: the EC50 was in the range of 0.2 to 1 µM.

Consider `N#Cc1ccn2cnc(CNC(=O)c3cnn(Cc4cn5cc(C6CC6)ccc5n4)c3)c2c1` [Compound I-10, N-((7-cyanoimidazo[1,5-a]pyridin-1-yl)methyl)-1-((6-cyclopropylimidazo[1,2-a]pyridin-2-yl)methyl)-1H-pyrazole-4-carboxamide], for which the EC50 was ≤ 0.05 µM. With `Fc1c(Cl)ccn2cnc(CNCc3cn(Cc4cn5cc(C6CC6)ccc5n4)nn3)c12` [Compound I-11, 1-(7-chloro-8-fluoroimidazo[1,5-a]pyridin-1-yl)-N-((1-((6-cyclopropylimidazo[1,2-a]pyridin-2-yl)methyl)-1H-1,2,3-triazol-4-yl)methyl)methanamine], the EC50 is ≤ 0.05 µM. In the case of `CC(NCc1ncn2ccc(Cl)c(F)c12)c1cn(Cc2cn3cc(C4CC4)ccc3n2)nn1` (stereo not drawn) [Compound I-12, N-((7-chloro-8-fluoroimidazo[1,5-a]pyridin-1-yl)methyl)-1-(1-((6-cyclopropylimidazo[1,2-a]pyridin-2-yl)methyl)-1H-1,2,3-triazol-4-yl)ethan-1-amine], the EC50 is 0.05 to 0.2 µM.

For `CC(NC(=O)Cc1ncn2ccc(Cl)cc12)c1cn(Cc2cn3cc(C4CC4)ccc3n2)nn1` (stereo not drawn) [Compound I-13, 2-(7-chloroimidazo[1,5-a]pyridin-1-yl)-N-(1-(1-((6-cyclopropylimidazo[1,2-a]pyridin-2-yl)methyl)-1H-1,2,3-triazol-4-yl)ethyl)acetamide], the EC50 was ≤ 0.05 µM. In the case of `COC(=O)c1cc(C2CC2)cn2cc(Cn3cc(CNCc4ncn5ccc(Cl)c(F)c45)nn3)nc12` [Compound I-14, Methyl 2-((4-((((7-chloro-8-fluoroimidazo[1,5-a]pyridin-1-yl)methyl)amino)methyl)-1H-1,2,3-triazol-1-yl)methyl)-6-cyclopropylimidazo[1,2-a]pyridine-8-carboxylate], the EC50 was ≤ 0.05 µM. Consider `O=C(O)c1cc(C2CC2)cn2cc(Cn3cc(CNCc4ncn5ccc(Cl)c(F)c45)nn3)nc12` [Compound I-15, 2-((4-((((7-chloro-8-fluoroimidazo[1,5-a]pyridin-1-yl)methyl)amino)methyl)-1H-1,2,3-triazol-1-yl)methyl)-6-cyclopropylimidazo[1,2-a]pyridine-8-carboxylic Acid], for which the EC50 lay in the range of 0.2 to 1 µM. As to `Fc1c(Cl)ccn2cnc(CNC(c3cnn(Cc4cn5cc(C6CC6)ccc5n4)c3)C(F)(F)F)c12` (stereo not drawn) [Compound I-16, N-((7-chloro-8-fluoroimidazo[1,5-a]pyridin-1-yl)methyl)-1-(1-((6-cyclopropylimidazo[1,2-a]pyridin-2-yl)methyl)-1H-pyrazol-4-yl)-2,2,2-trifluoroethan-1-amine], the concentration giving a half-maximal response (EC50) was ≤ 0.05 µM.

As for `CCOC(=O)CCc1cc(C2CC2)cn2cc(Cn3cc(CNCc4ncn5ccc(Cl)c(F)c45)nn3)nc12` [Compound I-17a, Ethyl 3-(2-((4-((((7-chloro-8-fluoroimidazo[1,5-a]pyridin-1-yl)methyl)amino)methyl)-1H-1,2,3-triazol-1-yl)methyl)-6-cyclopropylimidazo[1,2-a]pyridin-8-yl)propanoate], the 50% effective concentration (EC50) is ≤ 0.05 µM. With `O=C(O)CCc1cc(C2CC2)cn2cc(Cn3cc(CNCc4ncn5ccc(Cl)c(F)c45)nn3)nc12` [Compound I-17b, 3-(2-((4-((((7-chloro-8-fluoroimidazo[1,5-a]pyridin-1-yl)methyl)amino)methyl)-1H-1,2,3-triazol-1-yl)methyl)-6-cyclopropylimidazo[1,2-a]pyridin-8-yl)propanoic acid], the EC50 is ≤ 0.05 µM.

With `Fc1c(Cl)ccn2cnc(CNCc3cn(Cc4cn5cc(C6CC6)cc(-n6cnnc6)c5n4)nn3)c12` [Compound I-18, 1-(7-chloro-8-fluoroimidazo[1,5-a]pyridin-1-yl)-N-((1-((6-cyclopropyl-8-(4H-1,2,4-triazol-4-yl)imidazo[1,2-a]pyridin-2-yl)methyl)-1H-1,2,3-triazol-4-yl)methyl)methanamine], the EC50 is ≤ 0.05 µM. In the case of `O=C(Cc1ncn2ccc(Cl)cc12)NC(c1cnn(Cc2cn3cc(C4CC4)ccc3n2)c1)C(F)(F)F` (stereo not drawn) [Compound I-19, 2-(7-chloroimidazo[1,5-a]pyridin-1-yl)-N-(1-(1-((6-cyclopropylimidazo[1,2-a]pyridin-2-yl)methyl)-1H-pyrazol-4-yl)-2,2,2-trifluoroethyl)acetamide], the EC50 is 0.05 to 0.2 µM. `CN1CCN(c2cc(C3CC3)cn3cc(Cn4cc(C(=O)NCc5ncn6ccc(Cl)c(F)c56)nn4)nc23)CC1` [Compound I-20, N-((7-chloro-8-fluoroimidazo[1,5-a]pyridin-1-yl)methyl)-1-((6-cyclopropyl-8-(4-methylpiperazin-1-yl)imidazo[1,2-a]pyridin-2-yl)methyl)-1H-1,2,3-triazole-4-carboxamide]: the EC50 is ≤ 0.05 µM.

In general, EC50 refers to the concentration that produces a half-maximal response.
